Laboratory results taken from ChEMBL document CHEMBL1132927, “New proline mimetics: synthesis of thrombin inhibitors incorporating cyclopentane- and cyclopentenedicarboxylic acid templates in the P2 position. Binding conformation investigated by X-ray crystallography” (J Med Chem, 2000).

biological target: Prothrombin (Homo sapiens, UniProt P00734); experiment: In vitro for the inhibition of thrombin

SMILES | IC50
CCON(C(=O)C1=CCC[C@H]1C(=O)NCc1ccc(C(=N)N)cc1)C1CCCCC1 | 0.87 µM
COC(=O)[C@H](NC(=O)[C@@H]1CCC[C@H]1C(=O)NCc1ccc(C(=N)N)cc1)c1ccccc1 | 20.4 µM
N=C(N)c1ccc(CNC(=O)[C@@H]2CCC[C@H]2C(=O)NC2CCCCC2)cc1 | 1.32 µM
N=C(N)c1ccc(CNC(=O)[C@@H]2CCC=C2C(=O)NC2CCCCC2)cc1 | 1.51 µM
N=C(N)c1ccc(CNC(=O)[C@H]2CCC[C@@H]2C(=O)NCc2ccccc2)cc1 | > 132 µM
N=C(N)c1ccc(CNC(=O)[C@@H]2CCC=C2C(=O)N2CCCCC2)cc1 | 6.03 µM
CCN(C(=O)C1=CCC[C@H]1C(=O)NCc1ccc(C(=N)N)cc1)c1ccccc1 | 0.98 µM
N=C(N)c1ccc(CNC(=O)[C@@H]2CCC[C@H]2C(=O)N[C@@H](C(=O)O)c2ccccc2)cc1 | > 132 µM
N=C(N)c1ccc(CNC(=O)[C@@H]2CCC[C@H]2C(=O)NCc2ccccc2)cc1 | 44.7 µM
N=C(N)c1ccc(CNC(=O)[C@@H]2CCC=C2C(=O)NCC2CCCCC2)cc1 | 9.33 µM
